These results are taken from patent publication US12479843B2, “Spiro ring-containing quinazoline compounds” (WIGEN BIOMEDICINE TECHNOLOGY (SHANGHAI) CO., LTD., priority 2019, dated 2025).

For assay [1], the system named is pERK level in H358 cells. Put plainly: pERK and ERK protein content assay in H358 cells (ELISA). Format: cell-based. The note with it: Homo sapiens, NCI-H358, compound 1 μM, 24 h, pERK/ERK ratio compared with DMSO group, read-out: Inhibition rate (%) of pERK level. In short, it runs like this: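 Percent inhibition of pERK relative to DMSO, from the ELISA pERK/ERK ratio in lysed H358 cells. Compound applied at 1 μM for 24 h after one day of growth.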

For assay [2], the system named is H358 cells. The assay can be described thus: Antiproliferative activity against H358 cells (Cell Titer Glow, ultra-low attachment plate). Format: cell-based. Conditions: Homo sapiens, NCI-H358, 72 h, 96-well ultra-low attachment plate, three days after addition of compound, Cell Titer Glow. How it is done:
2500 H358 cells were seeded in a 96-well ultra-low attachment plate (corning, 7007). After one day of growth, a serially diluted compound (a maximum concentration of 5 μM, 5-fold dilution, a total of five doses) was added. Three days after the addition of the compound, Cell Titer Glow (Promega, G9681) was added to evaluate pellet growth, and the IC50 value was calculated.

In the case of `C=C(F)C(=O)N1CC2(CCN(c3nc(N4CC5(CCN(CC6CC6)CC5)C4)nc4c(OCC(F)(F)F)c(-c5c(C)ccc6[nH]ncc56)c(C5CC5)cc34)CC2)C1` [Compound 84], the inhibition at 1 µM in assay [1] was more than 90%. In assay [2], this compound registered a concentration for half-maximal inhibition (IC50) of less than 300 nM.
On to `C=CC(=O)N1CC2(CCN(c3nc(N4CC[C@@H](N5CCC5)C4)nc4c(OCC(F)(F)F)c(-c5c(C)ccc6[nH]ncc56)c(C5CC5)cc34)CC2)C1` [Compound 182], for which, in assay [1], the inhibition at 1 µM is more than 90%. The half-maximal inhibitory concentration (IC50) in assay [2] was less than 300 nM.
On the same counts, the results for `C=C(F)C(=O)N1CC2(CCN(c3nc(N4CC5(CCN(C)CC5)C4)nc4c(OCC(F)(F)F)c(-c5c(C)ccc6[nH]ncc56)c(C5CC5)cc34)CC2)C1` [Compound 78] are 50 to 90% and 300 to 1000 nM.
On the same counts, the results for `C=CC(=O)N1CC2(CCN(c3nc(OC4CCN(CCOC)CC4)nc4c(OCC(F)(F)F)c(-c5c(F)cccc5F)c(C5CC5)cc34)CC2)C1` [Compound 53] are more than 90% and less than 300 nM.
The corresponding values for `C=CC(=O)N1CC2(CCN(c3nc(OC4CCC5(CC4)CN(CCOC)C5)nc4c(OCC(F)(F)F)c(-c5c(C)ccc6[nH]ncc56)c(C5CC5)cc34)CC2)C1` [Compound 137] are more than 90% and less than 300 nM.
For `C=CC(=O)N1CC2(CCN(c3nc(N4CCC5(CCN(CCOC)CC5)C4)nc4c(OCC(F)(F)F)c(-c5c(C)ccc6[nH]ncc56)c(C5CC5)cc34)CC2)C1` [Compound 101], the inhibition at 1 µM in assay [1] is more than 90%. The same compound returned a half-inhibitory concentration (IC50) in assay [2] of less than 300 nM.
Regarding `C=C(F)C(=O)N1CC2(CCN(c3nc(OC4CN(C)C4)nc4c(OCC(F)(F)F)c(-c5c(C)ccc6[nH]ncc56)c(C5CC5)cc34)CC2)C1` [Compound 110], in assay [1], the inhibition at 1 µM was more than 90%. Besides, in assay [2], the IC50 is less than 300 nM.
Regarding `C=CC(=O)N1CC2(CCN(c3nc(OC4CC5(CCN(C6COC6)CC5)C4)nc4c(OCC(F)(F)F)c(-c5c(C)ccc6[nH]ncc56)c(C5CC5)cc34)CC2)C1` [Compound 133], the inhibition at 1 µM in assay [1] was more than 90%. Further, the IC50 in assay [2] was less than 300 nM.
On the same counts, the results for `C=CC(=O)N1CC2(CCN(c3nc(OC4C5CC4CN(CCOC)C5)nc4c(OCC(F)(F)F)c(-c5c(C)ccc6[nH]ncc56)c(C5CC5)cc34)CC2)C1` (centres unmarked) [Compound 119] are 50 to 90% and less than 300 nM.
Consider `C=CC(=O)N1CC2(CCN(c3nc(N4CC(N(C)CCOC)C4)nc4c(OCC(F)(F)F)c(-c5c(C)ccc6[nH]ncc56)c(C5CC5)cc34)CC2)C1` [Compound 140], for which, in assay [1], the inhibition at 1 µM is more than 90%. Moreover, the IC50 in assay [2] was less than 300 nM.
On the same counts, the results for `C=CC(=O)N1CC2(CCN(c3nc(N4CC[C@@H](N5CCOCC5)C4)nc4c(OCC(F)(F)F)c(-c5c(C)ccc6[nH]ncc56)c(C5CC5)cc34)CC2)C1` [Compound 210] are more than 90% and less than 300 nM.
The corresponding values for `C=CC(=O)N1CC2(CCN(c3nc(N4CC(N5CCC[C@@H]5C#N)C4)nc4c(OCC(F)(F)F)c(-c5c(C)ccc6[nH]ncc56)c(C5CC5)cc34)CC2)C1` [Compound 249] are 50 to 90% and 300 to 1000 nM.
In the case of `C=CC(=O)N1CC2(CCN(c3nc(N4CC5(CC(N6CC(C)C6)C5)C4)nc4c(OCC(F)(F)F)c(-c5c(C)ccc6[nH]ncc56)c(C5CC5)cc34)CC2)C1` [Compound 288], the inhibition at 1 µM in assay [1] is more than 90%. In assay [2], this compound showed a 50% inhibitory concentration (IC50) of less than 300 nM.
The corresponding values for `C=CC(=O)N1CC2(CCN(c3nc(N4CC(N5CC[C@H](C)C5)C4)nc4c(OCC(F)(F)F)c(-c5c(C)c(F)cc6[nH]ncc56)c(C5CC5)cc34)CC2)C1` [Compound 327] are more than 90% and less than 300 nM.
On the same counts, the results for `C=CC(=O)N1CC2(CCN(c3nc(N(C)CCN4CC(F)C4)nc4c(OCC(F)(F)F)c(-c5c(C)ccc6[nH]ncc56)c(C5CC5)cc34)CC2)C1` [Compound 228] are more than 90% and less than 300 nM.
With `C=C(F)C(=O)N1CC2(CCN(c3nc(OC4CN(CCOC)C4)nc4c(OCC(F)(F)F)c(-c5c(C)ccc6[nH]ncc56)c(C5CC5)cc34)CC2)C1` [Compound 114], in assay [1], the inhibition at 1 µM is more than 90%. The same compound registered an IC50 in assay [2] of less than 300 nM.
Regarding `C=CC(=O)N1CC2(CCN(c3nc(N4CC(N5CC[C@@H](C)C5)C4)nc4c(OCC(F)F)c(-c5c(C)ccc6[nH]ncc56)c(C5CC5)cc34)CC2)C1` [Compound 334], the inhibition at 1 µM in assay [1] is more than 90%. Further, the IC50 in assay [2] was less than 300 nM.
On to `C=C(F)C(=O)N1CC2(CCN(c3nc(OC4CCN(CCOC)CC4)nc4c(OCC(F)F)c(-c5c(C)ccc6[nH]ncc56)c(C5CC5)cc34)CC2)C1` [Compound 3], for which the inhibition at 1 µM in assay [1] was more than 90%. In assay [2], this compound had an IC50 of less than 300 nM.
Consider `C=C(F)C(=O)N1CC2(CCN(c3nc(N4CCC5(CN(CCOC)C5)C4)nc4c(OCC(F)(F)F)c(-c5c(C)ccc6[nH]ncc56)c(C5CC5)cc34)CC2)C1` [Compound 100], for which the inhibition at 1 µM in assay [1] was more than 90%. The compound further registered an IC50 in assay [2] of less than 300 nM.
The corresponding values for `C=CC(=O)N1CC2(CCN(c3nc(N4CC(N5CCC[C@H]5C#N)C4)nc4c(OCC(F)(F)F)c(-c5c(C)ccc6[nH]ncc56)c(C5CC5)cc34)CC2)C1` [Compound 250] are 50 to 90% and 300 to 1000 nM.
As to `C=C(F)C(=O)N1CC2(CCN(c3nc(OC4C5CC4CN(CCOC)C5)nc4c(OCC(F)(F)F)c(-c5c(C)ccc6[nH]ncc56)c(C5CC5)cc34)CC2)C1` (centres unmarked) [Compound 120], in assay [1], the inhibition at 1 µM lay within 50 to 90%. This compound gave an IC50 in assay [2] of 300 to 1000 nM.
Turning to `C=C(F)C(=O)N1CC2(CCN(c3nc(OC4CCN(CCOC)CC4)nc4c(OCC(F)(F)F)c(-c5c(F)ccc6[nH]cnc56)c(C5CC5)cc34)CC2)C1` [Compound 38], the inhibition at 1 µM in assay [1] is more than 90%. The IC50 in assay [2] is 300 to 1000 nM.
The corresponding values for `C=CC(=O)N1CC2(CCN(c3nc(N4CC[C@@H](N5CC[C@@H](F)C5)C4)nc4c(OCC(F)(F)F)c(-c5c(C)ccc6[nH]ncc56)c(C5CC5)cc34)CC2)C1` [Compound 194] are more than 90% and less than 300 nM.
For `C=CC(=O)N1CC2(CCN(c3nc(N4CC5(CCN(CCOCC)CC5)C4)nc4c(OCC(F)(F)F)c(-c5c(C)ccc6[nH]ncc56)c(C5CC5)cc34)CC2)C1` [Compound 93], in assay [1], the inhibition at 1 µM was more than 90%. For the same compound, in assay [2], the IC50 was less than 300 nM.
On the same counts, the results for `C=CC(=O)N1CC2(CCN(c3nc(N4CC(N5CC(F)(F)C5)C4)nc4c(OCC(F)(F)F)c(-c5c(C)ccc6[nH]ncc56)c(C5CC5)cc34)CC2)C1` [Compound 169] are 50 to 90% and 300 to 1000 nM.
For the compound `C=CC(=O)N1CC2(CCN(c3nc(OC4CCN(CCOC)CC4)nc4c(N(C)CC(F)(F)F)c(-c5c(C)ccc6[nH]ncc56)c(C5CC5)cc34)CC2)C1` [Compound 7], in assay [1], the inhibition at 1 µM lay in the range of 50 to 90%. In addition, the half-inhibitory concentration (IC50) in assay [2] is 300 to 1000 nM.
On the same counts, the results for `C=CC(=O)N1CC2(CCN(c3nc(N4CC[C@@H](N5C6CCC5CC6)C4)nc4c(OCC(F)(F)F)c(-c5c(C)ccc6[nH]ncc56)c(C5CC5)cc34)CC2)C1` [Compound 303] are more than 90% and less than 300 nM.
On the same counts, the results for `C=CC(=O)N1CC2(CCN(c3nc(N4CC(N5CCC[C@H]5C)C4)nc4c(OCC(F)(F)F)c(-c5c(C)ccc6[nH]ncc56)c(C5CC5)cc34)CC2)C1` [Compound 245] are more than 90% and less than 300 nM.
On the same counts, the results for `C=CC(=O)N1CC2(CCN(c3nc(N4CC(N5CCCC5)C4)nc4c(OCC(F)(F)F)c(-c5c(C)c(C)cc6[nH]ncc56)c(C=C)cc34)CC2)C1` [Compound 222] are more than 90% and less than 300 nM.
Regarding `C=C(F)C(=O)N1CC2(CCN(c3nc(OC4CCN(CCCOC)CC4)nc4c(OCC(F)(F)F)c(-c5c(C)ccc6[nH]ncc56)c(C5CC5)cc34)CC2)C1` [Compound 63], the inhibition at 1 µM in assay [1] is more than 90%. This compound also registered an IC50 in assay [2] of less than 300 nM.
On the same counts, the results for `C=CC(=O)N1CC2(CCN(c3nc(N4CC[C@H](N(C)CC)C4)nc4c(OCC(F)(F)F)c(-c5c(C)ccc6[nH]ncc56)c(C5CC5)cc34)CC2)C1` [Compound 187] are more than 90% and less than 300 nM.
The corresponding values for `C=C(F)C(=O)N1CC2(CCN(c3nc(OC4CCN(CCOC)CC4)nc4c(OCC(F)(F)F)c(-c5c(O)cccc5F)c(C5CC5)cc34)CC2)C1` [Compound 46] are more than 90% and less than 300 nM.
The corresponding values for `C=CC(=O)N1CC2(CCN(c3nc(N4CC(N5C[C@@H](O)C[C@H]5C)C4)nc4c(OCC(F)(F)F)c(-c5c(C)ccc6[nH]ncc56)c(C5CC5)cc34)CC2)C1` [Compound 259] are more than 90% and less than 300 nM.
Turning to `C=CC(=O)N1CC2(CCN(c3nc(OC4CCS(=O)(=O)CC4C)nc4c(OCC(F)(F)F)c(-c5c(C)ccc6[nH]ncc56)c(C5CC5)cc34)CC2)C1` (centres unmarked) [Compound 316], the inhibition at 1 µM in assay [1] was more than 90%. Further, the IC50 in assay [2] is less than 300 nM.
For the compound `C=CC(=O)N1CC2(CCN(c3nc(N4CC(N(CC)CC)C4)nc4c(OCC(F)(F)F)c(-c5c(C)ccc6[nH]ncc56)c(C5CC5)cc34)CC2)C1` [Compound 166], the inhibition at 1 µM in assay [1] is more than 90%. Further, the IC50 in assay [2] is less than 300 nM.
`C=CC(=O)N1CC2(CCN(c3nc(OC4CCN(CCOC)CC4)nc4c(OCC(F)(F)F)c(-c5cc(O)ccc5Cl)c(C5CC5)cc34)CC2)C1` [Compound 58]: the inhibition at 1 µM in assay [1] is more than 90%. The IC50 in assay [2] was less than 300 nM.
As for `C=CC(=O)N1CC2(CCN(c3nc(N4CC[C@@H](N(C)CC)C4)nc4c(OCC(F)(F)F)c(-c5c(C)ccc6[nH]ncc56)c(C5CC5)cc34)CC2)C1` [Compound 188], the inhibition at 1 µM in assay [1] was more than 90%. The IC50 in assay [2] is less than 300 nM.
